The test system of one test is C. krusei. Put plainly: In vitro activity by the agar dilution method, C. krusei. In kind it is cell-based. As to conditions: Pichia kudriavzevii; Kimmig's agar, 25° C., 48 h; read-out: MIC (minimal inhibitory concentration), C. krusei. On the procedure: (§1) In vitro activity was evaluated against C. albicans, C. krusei, and Aspergillus fumigatus by the agar dilution method. Test strains were either clinical isolates or were obtained from ATCC. Stock solutions containing 800 μg/mL were prepared by solving the test products in 50% ethanol. The culture medium used was Kimmig's agar (K. A., E. Merck) supplemented with 0.5% glycerol. Plates containing serial dilutions (80 to 0.025 gg/imL) of the test products were inoculated with 10 μL of the fungal inocula, containing 10^5 colony forming units (cfu)/mL. Plates were incubated at 25° C. during 48 h for Candida sp. and during 5 days for Apergillus fumigatus. Following incubation MICs (minimal inhibitory concentrations) were determined.

For another test, the system named is Aspergillus fumigatus. The experiment in a line: In vitro activity by the agar dilution method, Aspergillus fumigatus. The format is cell-based. As to conditions: 120 h, Kimmig's agar, 25° C., 5 days, read-out: MIC (minimal inhibitory concentration), Asp. fumigatus. On the procedure: as §1
A general note: In agar dilution, organisms are placed on agar that contains the substance at set levels.

For another test, the system named is C. albicans. Put plainly: In vitro activity by the agar dilution method, C. albicans. The following applies: Candida albicans; Kimmig's agar, 25° C., 48 h; read-out: MIC (minimal inhibitory concentration), C. albicans. In kind it is cell-based. On the procedure:
as §1

Another test deals with Candida albicans. Put plainly: In Vivo Activity (Systemic Candidiasis). The following applies: po, 576 h, orally at 1 mg/kg at 1, 4 and 24 h after infection, male mice, i.v. infection, read-out: protection on the day where all the animals in the control group had died. How it is done: Groups of 10 male mice were inoculated i.v. with 0.2 mL of a suspension containing (2-8)×10^7 cfu/mL of Candida albicans. Compounds were administered orally at 1 mg/kg (or at 10 mg/kg for those compounds marked with an asterisk) at times 1, 4 and 24 h after infection.

Each structure is given as a SMILES string. Converted amounts (≈) assume the structure as drawn.

With `C[C@@H](n1cnc2cc(N(C)C)c(F)cc2c1=O)[C@](O)(Cn1cncn1)c1ccc(F)cc1F` [Example 4, (1R,2R)-3-[2-(2,4-Difluorophenyl)-2-hydroxy-1-methyl-3-(1H-1,2,4-triazol-1-yl)propyl]-7-dimethylamino-6-fluoroquinazolin-4(3H)-one], the MIC with C. krusei turned out to be 0.63 µg/mL (≈ 1.37 µM); in the test with Aspergillus fumigatus it was 10 µg/mL (≈ 21.8 µM); in the test with C. albicans, 0.15 µg/mL (≈ 0.327 µM). Regarding `C[C@@H](n1cnc2ccccc2c1=O)[C@](O)(Cn1cncn1)c1ccc(F)cc1F` [Example 5, (1R,2R)-3-[2-(2,4-Difluorophenyl)-2-hydroxy-1-methyl-3-(1H-1,2,4-triazol-1-yl)propyl]quinazolin-4(3H)-one], the MIC in the test on C. krusei came out at 5 µg/mL (≈ 12.6 µM); in the test on Aspergillus fumigatus, 10 µg/mL (≈ 25.2 µM); with C. albicans, 0.07 µg/mL (≈ 0.176 µM). `C[C@@H](n1cnc2c(Cl)cc(Cl)cc2c1=O)[C@](O)(Cn1cncn1)c1ccc(F)cc1F` [Example 9, (1R,2R)-6,8Dichloro-3-[2-(2,4-difluorophenyl)-2-hydroxy-1-methyl-3-(1H-1,2,4-triazol-1-yl)propyl]quinazolin4(3H)-one]: the responders at 1 mg/kg in the test on Candida albicans is 100%. On the same count and under the same terms, in the case of `C[C@@H](n1cnc2ccc(Br)cc2c1=O)[C@](O)(Cn1cncn1)c1ccc(F)cc1F` [Example 10, (1R,2R)-6-Bromo-3-[2-(2,4-difluorophenyl)-2-hydroxy-1-methyl-3-(1H-1,2,4-triazol-1-yl)propyl]quinazolin4(3H)-one] it was 100%. For `C[C@@H](n1cnc2cc(F)ccc2c1=O)[C@](O)(Cn1cncn1)c1ccc(F)cc1F` [Example 12, (1R,2R)-3-[2-(2,4-Difluorophenyl)-2-hydroxy-1-methyl-3-(1H-1,2,4-triazol-1-yl)propyl]-7-fluoroquinazolin-4(3H)-one], the MIC in the test on C. krusei is 1.25 µg/mL (≈ 3.01 µM); with Aspergillus fumigatus it was 1.25 µg/mL (≈ 3.01 µM); in the test on C. albicans, ≤ 0.03 µg/mL.

For the molecule `C[C@@H](n1cnc2cc(OCC(F)F)ccc2c1=O)[C@](O)(Cn1cncn1)c1ccc(F)cc1F` [Example 19, (1R,2R)-7-(2,2-Difluoroethoxy)-3-[2-(2,4-difluorophenyl)-2-hydroxy-1-methyl-3-(1H-1,2,4-triazol-1-yl)propyl]quinazolin-4(3H)-one], the responders at 1 mg/kg with Candida albicans is 100%. Consider `Cc1ccc2ncn([C@H](C)[C@](O)(Cn3cncn3)c3ccc(F)cc3F)c(=O)c2c1` [Example 24, (1R,2R)-3-[2-(2,4-Difluorophenyl)-2-hydroxy-1-methyl-3-(1H-1,2,4-triazol-1-yl)propyl]-6-methylquinazolin-4(3H)-one], for which the results for the MIC with C. krusei, in the test with Aspergillus fumigatus and in the test on C. albicans were 2.5 µg/mL (≈ 6.08 µM), 40 µg/mL (≈ 97.2 µM) and ≤ 0.03 µg/mL, respectively. Regarding `C[C@@H](n1cnc2cc(-c3ccc(C(F)(F)F)cc3)sc2c1=O)[C@](O)(Cn1cncn1)c1ccc(F)cc1F` [Example 33, (1R,2R)-3-[2-(2,4-Difluorophenyl)-2-hydroxy-1-methyl-3-(1H-1,2,4-triazol-1-yl)propyl]-6-[(4-trifluoromethyl)phenyl]thieno[3,2-d]pyrimidin-4(3H)-one], the responders at 1 mg/kg in the test with Candida albicans amounted to 100%. Same read-out and setting: next, `C[C@@H](n1cnc2cc(-c3ccc(OCC(F)(F)C(F)F)cc3)sc2c1=O)[C@](O)(Cn1cncn1)c1ccc(F)cc1F` [Example 34, (1R,2R)-3-[2-(2,4-Difluorophenyl)-2-hydroxy-1-methyl-3-(1H-1,2,4-triazol-1-yl)propyl]-6-[4-(2,2,3,3-tetrafluoropropoxy)phenyl]thieno[3,2-d]pyrimidin-4(3H)-one]: 100%. As to `C[C@@H](n1cnc2cc3ccccc3cc2c1=O)[C@](O)(Cn1cncn1)c1ccc(F)cc1F` [Example 38, (1R,2R)-3-[2-(2,4-Difluorophenyl)-2-hydroxy-1-methyl-3-(1H-1,2,4-triazol-1-yl)propyl]benzo[g]quinazolin4(3H)-one], the MIC with C. krusei was 5 µg/mL (≈ 11.2 µM); in the test on Aspergillus fumigatus, 20 µg/mL (≈ 44.7 µM); with C. albicans, ≤ 0.03 µg/mL.

With `C[C@@H](n1cnc2cc(-n3cncn3)ccc2c1=O)[C@](O)(Cn1cncn1)c1ccc(F)cc1F` [Example 48, (1R,2)-3-[2-(2,4-Difluorophenyl)-2-hydroxy-1-methyl-3-(1H-1,2,4-triazol-1-yl)propyl]-7-(1H-1,2,4-triazol-1-yl)quinazolin-4(3H)-one], the responders at 1 mg/kg with Candida albicans is 100%.

Consider `C[C@@H](n1cnc2cc(S(C)(=O)=O)ccc2c1=O)[C@](O)(Cn1cncn1)c1ccc(F)cc1F` [Example 51, (1R,2R)-3-[2-(2,4-Difluorophenyl)-2-hydroxy-1-methyl-3-(1H-1,2,4-triazol-1-yl)propyl]-7-(methylsulfonyl)quinazolin-4(3H)-one], for which, in the test on Candida albicans, the responders at 1 mg/kg was determined as 100%. Regarding `C[C@@H](n1cnc2cc(Cl)ccc2c1=O)[C@](O)(Cn1cncn1)c1ccc(Cl)cc1Cl` [Example 52, (1R,2R)-7-Chloro-3-[2-(2,4-dichlorophenyl)-2-hydroxy-1-methyl-3-(1H-1,2,4-triazol-1-yl)propyl]quinazolin-4(3H)-one], the responders at 1 mg/kg in the test with Candida albicans stood at 100%.

Regarding `C[C@@H](n1cnc2cc(C(F)(F)F)ccc2c1=O)[C@](O)(Cn1cncn1)c1ccc(Cl)cc1Cl` [Example 53, (1R,2R)-3-[2-(2,4-Dichlorophenyl)-2-hydroxy-1-methyl-3-(1H-1,2,4-triazol-1-yl)propyl]-7-trifluoromethylquinazolin-4(3H)-one], the responders at 1 mg/kg with Candida albicans was 100%.

As to `C[C@@H](n1cnc2cc(-c3ccc(Cl)cc3)sc2c1=O)[C@](O)(Cn1cncn1)c1ccc(Cl)cc1Cl` [Example 54, (1R,2R)-6-(4-Chlorophenyl)-3-[2-(2,4-dichlorophenyl)-2-hydroxy-1-methyl-3-(1H-1,2,4-triazol-1-yl)propyl]thieno[3,2-d]pyrimidin-4(3H)-one], the responders at 1 mg/kg with Candida albicans is 100%. The same measure, in the same setting: in the case of `C[C@@H](n1cnc2cc(-c3ccc(C#N)cc3)sc2c1=O)[C@](O)(Cn1cncn1)c1ccc(Cl)cc1Cl` [Example 55, (1R,2R)-4-[3-[2-(2,4-Dichlorophenyl)-2-hydroxy-1-methyl-3-(1H-1,2,4-triazol-1-yl)propyl]-4-oxo-3,4-dihydrothieno[3,2-d]pyrimidin-6-yl]benzonitrile] it was 100%. For `C[C@@H](n1cnc2cc(Sc3ccccc3)ccc2c1=O)[C@](O)(Cn1cncn1)c1ccc(F)cc1F` [Example 60, (1R,2R)-3-[2-(2,4-Difluorophenyl)-2-hydroxy-1-methyl-3-(1H-1,2,4-triazol-1-yl)propyl]-7-(phenylthio)quinazolin-4(3H)-one], the MIC is 0.31 µg/mL (≈ 0.613 µM) in the test on C. krusei, 0.63 µg/mL (≈ 1.25 µM) with Aspergillus fumigatus and ≤ 0.03 µg/mL in the test with C. albicans.

For `C[C@@H](n1cnc2cc(S(=O)(=O)c3ccccc3)ccc2c1=O)[C@](O)(Cn1cncn1)c1ccc(F)cc1F` [Example 61, (1R,2R)-3-[2-(2,4-Difluorophenyl)-2-hydroxy-1-methyl-3-(1H-1,2,4-triazol-1-yl)propyl]-7-phenylsulfonylquinazolin-4(3H)-one], the MIC is 5 µg/mL (≈ 9.3 µM) with C. krusei, 5 µg/mL (≈ 9.3 µM) in the test with Aspergillus fumigatus and 0.31 µg/mL (≈ 0.577 µM) in the test on C. albicans. On to `C[C@@H](n1cnc2cc(-c3ccc(C(=N)NO)cc3)sc2c1=O)[C@](O)(Cn1cncn1)c1ccc(F)cc1F` [Example 62, (1R,2R)-3-[2-(2,4-Difluorophenyl)-2-hydroxy-1-methyl-3-(1H-1,2,4-triazol-1-yl)propyl]-6-[4-[(hydroxyamino)iminomethyl]phenyl]thieno[3,2-d]pyrimidin-4(3H)-one], for which the responders at 1 mg/kg in the test with Candida albicans was 100%. In the case of `C[C@@H](n1cnc2cc(-c3ccc(C(=N)NC#N)cc3)sc2c1=O)[C@](O)(Cn1cncn1)c1ccc(F)cc1F` [Example 65, (1R,2R)-6-[4-[Cyanoamino(imino)methyl]phenyl]-3-[2-(2,4-difluorophenyl)-2-hydroxy-1-methyl-3-(1H-1,2,4-triazol-1-yl)propyl]thieno[3,2-d]pyrimidin-4(3H)-one], the responders at 1 mg/kg in the test with Candida albicans was determined as 100%.

Consider `CC(=O)ONC(=N)c1ccc(-c2cc3ncn([C@H](C)[C@](O)(Cn4cncn4)c4ccc(F)cc4F)c(=O)c3s2)cc1` [Example 68], for which the MIC in the test with C. krusei is 10 µg/mL (≈ 17.3 µM); in the test with Aspergillus fumigatus it was 20 µg/mL (≈ 34.5 µM); with C. albicans, 0.31 µg/mL (≈ 0.535 µM). With `C[C@@H](n1cnc2cc(-c3ccc(C4=NCCO4)cc3)sc2c1=O)[C@](O)(Cn1cncn1)c1ccc(F)cc1F` [Example 69, (1R,2R)-3-[2-(2,4-Difluorophenyl)-2-hydroxy-1-methyl-3-(1-H-1,2,4-triazol-1-yl)propyl]-6-[4-(4,5-dihydrooxazol-2-yl)phenyl]thieno[3,2-d]pyrimidin-4(3H)-one], the responders at 1 mg/kg with Candida albicans is 100%. In the case of `C[C@@H](n1cnc2cc(-c3ccc(C(=N)NCCN)cc3)sc2c1=O)[C@](O)(Cn1cncn1)c1ccc(F)cc1F` [Example 70, (1R,2R)-6-[4-[(2-Aminoethylamino)(imino)methyl]phenyl]-3-[2-(2,4-difluorophenyl)-2-hydroxy-1-methyl-3-(1H-1,2,4-triazol-1-yl)propyl]thieno[3,2-d]pyrimidin-4(3H)-one], the MIC was found to be 10 µg/mL (≈ 17.7 µM) in the test with C. krusei, 20 µg/mL (≈ 35.4 µM) in the test with Aspergillus fumigatus and 0.07 µg/mL (≈ 0.124 µM) in the test on C. albicans.

Values taken from patent US5807854A, “Pyrimidone derivatives with antifungal activity” (J. Uriah & Cia. S.A., priority 1995, dated 1998).
